Bases are written 5' to 3'; sugars and linkages follow in the same order, as letters with counts (s phosphorothioate, o phosphodiester; PS: all linkages phosphorothioate). The collection does not say whether C is 5-methylated. l = locked nucleic acid (LNA); d = 2'-deoxy (DNA) Bounds are passed on as bounds.

The series concerns the target Tau. Briefly: rat primary cortical neurons, FLIPR, 25 uM ASO.
As for CACCTCCTGGTTTATG (sugars l3 d10 l3, PS), the calcium oscillation score was 65.3 % of control. Regarding AACCCCATAGACATAA (sugars l4 d8 l4, PS), the calcium oscillation score was 78.6 % of control. The result for “TCCCAGCGTGATCTTCCATC (sugars l5 d11 l4, PS)” reads 85.2 % of control; that for “TCCTGGTTTATGATGGATGT (sugars l3 d14 l3, PS)”, 5.81 % of control; that for TAGCAAACAGGATACA (sugars l3 d10 l3, PS), 49.8 % of control. The result for “CATCCTAAGTCAACCAC (sugars l3 d11 l3, PS)” reads 72.7 % of control.

Take AGTGACAGAAGAGACG (sugars l3 d10 l3, PS): the calcium oscillation score was 9.04 % of control. As for “TATTTCCAAATTCACTTTTA (sugars llldldddddddddldldll, PS)”, the calcium oscillation score was 108 % of control. On to CCCTAAAGTCCCAGG (sugars l3 d9 l3, PS), for which the calcium oscillation score is 72.4 % of control. The result for AAGCATTTCAAGATAC (sugars l3 d10 l3, PS) reads 66.7 % of control; that for “CATAATCCTACCACCAG (sugars l2 d12 l3, PS)”, 61.3 % of control; that for GTGATGCAGGAGTT (sugars l3 d8 l3, PS), 64.8 % of control.

Take TCGCTTCCAGTCCCGT (sugars l3 d10 l3, PS): the calcium oscillation score is 110 % of control. The result for “CCTCCCACCTATCAGTCA (sugars l1 d15 l2, PS)” reads 46.2 % of control. Take “TCCCAGCGTGATCTTCCATC (sugars lldllddddddddddlldll, PS)”: the calcium oscillation score was 106 % of control. The result for “CACTCAAGAAATGGTTTGCT (sugars l3 d14 l3, PS)” reads 9.52 % of control; that for “CTTGGCTTTTTTGTCATCGC (sugars l3 d14 l3, PS)”, 23.3 % of control; that for “CATAAATGACTATACTTATT (sugars l3 d14 l3, PS)”, 94.7 % of control.

With “TTTTACCAATTTGCCTA (sugars l2 d11 l4, PS)”, the calcium oscillation score was 46.2 % of control. Consider ACATCTCTCTAGACAT (sugars l4 d9 l3, PS), for which the calcium oscillation score is 59.5 % of control.

For the sequence “CTTTAATTTAATCACTCA (sugars l4 d10 l4, PS)”, the calcium oscillation score is 76.6 % of control. The value for GGCGACTTGTACACGA (sugars l3 d10 l3, PS) was 69.4 % of control; that for “CTTTATTTCCAAATTCAC (sugars l5 d9 l1 d1 l2, PS)” was 119 % of control.

In the case of “TCCCCATTTATCCTTCAT (sugars l2 d13 l3, PS)”, the calcium oscillation score is 77.3 % of control. Take “ACCACCTCATTAAGATC (sugars l4 d11 l2, PS)”: the calcium oscillation score is 58.3 % of control. The value for “TATTTCCAAATTCACTTTTA (sugars lldllddddddddddlldll, PS)” was 119 % of control; that for “ATCTTATTGCTTTCCAA (sugars l4 d10 l3, PS)” was 75.3 % of control; that for “TGCTCAGCTAAGACCCTCAG (sugars l3 d14 l3, PS)” was 29.4 % of control. Regarding AGAAATAAGTGGTAGT (sugars l3 d11 l2, PS), the calcium oscillation score was 85.7 % of control.

Regarding ATTTCCAAATTCACTT (sugars l3 d10 l3, PS), the calcium oscillation score is 111 % of control. The value for CCTAATGAGCCACACT (sugars l3 d10 l3, PS) was 92.6 % of control; that for “AAATCCCTCTACTCCAG (sugars l2 d12 l3, PS)” was 51.4 % of control; that for “ACGTGGGTGATATTGTCCAG (sugars l3 d14 l3, PS)” was 0 % of control. The result for GCGGAAGGTCAGCTTG (sugars l3 d10 l3, PS) reads 25.9 % of control. The value for “CTTACTTTCTACTCAATTCC (sugars l2 d16 l2, PS)” was 60.6 % of control; that for GGTGATATTGTCCAGG (sugars l3 d10 l3, PS) was 18.5 % of control. For “TCCACAAACCAACTCAACA (sugars l2 d13 l4, PS)”, the calcium oscillation score was 102 % of control. “ATCAATTTGGAAAGATGAAA (sugars l3 d14 l3, PS)”: the calcium oscillation score is 10.4 % of control.

Consider “TATTTCAACTCTTAGCA (sugars l4 d10 l3, PS)”, for which the calcium oscillation score was 59 % of control. The value for “TCAAACTAATATTAACACT (sugars l4 d11 l4, PS)” was 80.8 % of control; that for “CCAGACCATCAATTTCC (sugars l2 d13 l2, PS)” was 83.3 % of control. With “ATTTCCAAATTCACTTTTAC (sugars l3 d14 l3, PS)”, the calcium oscillation score is ≥ 200 % of control. In the case of CGCTTCCAGTCCCG (sugars l3 d8 l3, PS), the calcium oscillation score is 107 % of control. For the sequence TGTACACGATCTCCGC (sugars l3 d10 l3, PS), the calcium oscillation score is 145 % of control. The result for “TATTTCCAAATTCACTTTTA (sugars l5 d11 l4, PS)” reads 121 % of control. Turning to “TCCCTTAACAATATGCT (sugars l2 d11 l4, PS)”, the calcium oscillation score is 75.1 % of control. The result for CCAGGGACCCAATCTT (sugars l3 d10 l3, PS) reads 76 % of control; that for “TCCCAAATTCCTCATAATCC (sugars l2 d16 l2, PS)”, 64.5 % of control.

In the case of AATAAGAAAGGAACGC (sugars l4 d9 l3, PS), the calcium oscillation score is 102 % of control. “ACTTAAATTTATTTTCTTTT (sugars l4 d12 l4, PS)”: the calcium oscillation score is 55.8 % of control. On to GTCAGCTAGCGTGGCG (sugars l3 d10 l3, PS), for which the calcium oscillation score is 27.6 % of control.

As for CTTTGGCGTTCTCGCG (sugars l3 d10 l3, PS), the calcium oscillation score was 93.5 % of control.

Turning to CCTTAATTTCACCCTC (sugars l3 d10 l3, PS), the calcium oscillation score was 132 % of control.

Take CTCGTCAGCTAGCGTG (sugars l3 d10 l3, PS): the calcium oscillation score is 27.1 % of control. As to CTTAATTTCACCCTC (sugars l3 d9 l3, PS), the calcium oscillation score is 122 % of control.

With AATAAGAAAGGAACGC (sugars l4 d8 l4, PS), the calcium oscillation score was 5.95 % of control. The result for “TACCCATCTTAATTCATTTA (sugars l3 d14 l3, PS)” reads 111 % of control. The value for AGCTACTCACAACCCA (sugars l2 d11 l3, PS) was 65.6 % of control; that for “TCATGAGCACTAACTCTAAG (sugars l3 d14 l3, PS)” was 35.7 % of control; that for GACTTGGGTGGAGTAC (sugars l3 d10 l3, PS) was 0 % of control. Regarding TATTTATAGGTGCATA (sugars l3 d9 l4, PS), the calcium oscillation score was 0 % of control. As to “TATTTATTCTTTTTATTATT (sugars l4 d12 l4, PS)”, the calcium oscillation score was 58.6 % of control. The result for CAGAGGAACGTGTGGA (sugars l3 d10 l3, PS) reads 29.6 % of control. Consider “ATTCCCAAATTCCTCATAAT (sugars l4 d14 l2, PS)”, for which the calcium oscillation score was 58.6 % of control. The value for TGTCCAAACTTTTACT (sugars l4 d8 l4, PS) was 60.8 % of control; that for “TTCCACTACAAGCTCCA (sugars l3 d12 l2, PS)” was 53.9 % of control; that for “GCACCCACTTTCCTAATT (sugars l2 d14 l2, PS)” was 51.6 % of control. Consider AACCACTCTAACATCTT (sugars l4 d9 l4, PS), for which the calcium oscillation score is 88.3 % of control.

With “GCCCCACTTTTAATTAA (sugars l2 d11 l4, PS)”, the calcium oscillation score was 86.2 % of control. The result for “TTTTAATTAAATTTCTCCCT (sugars l4 d13 l3, PS)” reads 104 % of control; that for “TCCTCACTTTACACATTAA (sugars l4 d13 l2, PS)”, 62.5 % of control. The result for TTAATTTCACCCTC (sugars l3 d8 l3, PS) reads 44.1 % of control; that for “CCACCATACTTGACTTCT (sugars l2 d14 l2, PS)”, 76.8 % of control; that for TCCATTAATTTAGCCA (sugars l4 d10 l2, PS), 54.1 % of control. For “ATTTAATTTATTTTTTACT (sugars l4 d11 l4, PS)”, the calcium oscillation score was 60.1 % of control. As to CTTCATTCTTGCCCAA (sugars l3 d10 l3, PS), the calcium oscillation score was 33.3 % of control.

Take TTACCCTTAAATATGC (sugars l4 d8 l4, PS): the calcium oscillation score was 73.3 % of control. The result for “TAACCAATTAACCGAACTGC (sugars l3 d14 l3, PS)” reads 125 % of control.

As to CCTTTGAAAGTCCTTT (sugars l3 d11 l2, PS), the calcium oscillation score is 121 % of control.

As for “CCAAAACATTCTCACCAAAC (sugars l3 d15 l2, PS)”, the calcium oscillation score is 68.1 % of control. TTACACCCAAACCTAAA (sugars l4 d9 l4, PS): the calcium oscillation score was 92.3 % of control. The result for “ACCTCATTAAGATCACC (sugars l2 d11 l4, PS)” reads 69.7 % of control; that for TTTATAGGTGCATAGT (sugars l2 d10 l4, PS), 0 % of control. The value for “CCTCACTTTACACATTAAAT (sugars l4 d14 l2, PS)” was 64.1 % of control. “GCACCCTCCAAATCACCA (sugars l1 d15 l2, PS)”: the calcium oscillation score is 50.6 % of control.

On to AAACCATGATCTTAGG (sugars l3 d10 l3, PS), for which the calcium oscillation score was 81.3 % of control.

Consider AATCCTGTGCTTCAGG (sugars l3 d10 l3, PS), for which the calcium oscillation score is 73 % of control. On to “GACGTGGGTGATATTGTCCA (sugars l3 d14 l3, PS)”, for which the calcium oscillation score is 0 % of control.

Regarding “CTTAATTCATTTAATTCTCT (sugars l3 d13 l4, PS)”, the calcium oscillation score was 90.1 % of control.

With TCGATGCTGCCGGTGG (sugars l3 d10 l3, PS), the calcium oscillation score is 33.9 % of control. The value for “CTCCTAATTTTGCACTC (sugars l3 d11 l3, PS)” was 46.7 % of control; that for CCCTTTCAAACCAGCA (sugars l3 d11 l2, PS) was 91.8 % of control; that for CATGATCTTAGGCTGG (sugars l3 d10 l3, PS) was 7.83 % of control.

On to “ACTTTCCTAATTCCCAAATT (sugars l3 d15 l2, PS)”, for which the calcium oscillation score is 63.3 % of control. The result for CCATCACTTCGAACTC (sugars l3 d10 l3, PS) reads ≥ 200 % of control; that for “CTCAGATTTTACTTCCAC (sugars l4 d12 l2, PS)”, 43.1 % of control.

The values are drawn from the OligoGym collection.
